Measurements reported in PMC6379368, “Extracellular and intracellular small-molecule galectin-3 inhibitors” (Scientific Reports, 2019).

Key:
HCC1937 cells = test: MTT cell viability assay, HCC1937; assay type: cell-based; conditions: HCC1937, 72 hours, 0.04–40 µM for 1 and 2, 0.04–20 µM for 3
Method: The MTT (3-[4,5-dimethylthiazol-2-yl]−2,5-diphenyltetrazolium bromide) assays were performed as previously described. […] The cells were incubated for 24 hours before addition of galectin-3 inhibitors. The inhibitors were diluted in PBS from their respective stock solution in DMSO (see Galectin-3 inhibitors) and used at final concentrations ranging from 0.04 to 40 μM. DMSO was adjusted to make the final DMSO concentration 0.2% for all inhibitor concentrations, including the control sample (no inhibitor). After 72 hours of treatment, 20 μl of 5 mg/ml MTT solution (in PBS) was added to each well and incubation continued for 1 hour at 37 °C. Thereafter, the MTT containing medium was removed and 100 μl of DMSO was added per well and the plates swirled gently for 10 minutes to dissolve the cells and the purple formazan product precipitate. Absorbance was monitored at 540 nm using a Labsystems iEMS Reader MF (Labsystems Oy, Helsinki, Finland) and the software DeltaSoft II v.4.14 (Biometallics Inc., Princeton, NJ, USA).

PanC-1 cells = test: MTT assay, PanC-1 pancreatic cancer cells; assay type: cell-based; conditions: PanC-1, 72 hours
Method: The MTT (3-[4,5-dimethylthiazol-2-yl]−2,5-diphenyltetrazolium bromide) assays were performed as previously described. In brief, cells were seeded in 96-well plates (6000 cells/well for MCF-7 and HCC1937 and 5000 cells for JIMT-1 in 180 μl fully-supplemented medium as described under Cell culture). The cells were incubated for 24 hours before addition of galectin-3 inhibitors. The inhibitors were diluted in PBS from their respective stock solution in DMSO (see Galectin-3 inhibitors) and used at final concentrations ranging from 0.04 to 40 μM. DMSO was adjusted to make the final DMSO concentration 0.2% for all inhibitor concentrations, including the control sample (no inhibitor). After 72 hours of treatment, 20 μl of 5 mg/ml MTT solution (in PBS) was added to each well and incubation continued for 1 hour at 37 °C. […] Absorbance was monitored at 540 nm using a Labsystems iEMS Reader MF (Labsystems Oy, Helsinki, Finland) and the software DeltaSoft II v.4.14 (Biometallics Inc., Princeton, NJ, USA). […]
Fluorescence anisotropy assay
The affinity between inhibitor 1 and the carbohydrate recognition domain (CRD) of galectin-8C and between inhibitor 3 and the CRD of galectin-2, -4N, -4C, 8C, and -9C was determined using the fluorescence anisotropy assay described in the main article. […]

[1] = Caco-2 permeability assay; conditions: human, Caco-2, pH 7.4

With `OC[C@H]1O[C@@H](S[C@@H]2O[C@H](CO)[C@H](O)[C@H](n3cc(-c4cccc(F)c4)nn3)[C@H]2O)[C@H](O)[C@@H](n2cc(-c3cccc(F)c3)nn2)[C@H]1O` [compound 1] the “cell viability (MTT)” value (HCC1937 cells) was “no apparent change in cell viability”, the “toxicity (MTT)” value (PanC-1 cells) was “low toxicity” and the Papp A→B [1] was 0.07 ×10⁻⁶ cm/s. The Papp B→A [1] was 0.05 ×10⁻⁶ cm/s.
